Assay results as given in patent US9796755B2, “Methods of treating depression and other related diseases” (Northwestern University, priority 2009, dated 2017).

Assays:
rats [1] = assay: Porsolt test (Forced Swim Test), systemic dosing; assay type: in vivo, rat
Method: For the evaluation of the antidepressant actions of GLYX-13, the effect of GLYX-13 in the Porsolt test of depression was examined in rats. Porsolt testing is the most commonly used test for assessment of depression in animal model, Porsolt testing, also known as Forced Swim Test, is based on a behavioral trait that is sensitive to changes in affective state. During this test, the animal is placed in a tank (18 cm diameter×45 cm height) filled to 30 cm with 22-23° C. water. After placing the animal in the tank, the amount of time for which the rat is immobile when it stops struggling is measured. Porsolt test is based on the fact that antidepressants increase the latency to immobility and decrease the time for which the rat is immobile. […] The interpretation of the Porsolt test is that the antidepressants reinstate active coping mechanisms and decrease the passive immobility evoked by stress.
In order to evaluate the effectiveness of GLYX-13 as antidepressant, three month old FBNF1 rats were separated into two groups of 9 animals. The first group of rats was intravenously injected with 10 mg/kg GLYX-13 and the second group of animals was intravenously injected with PBS vehicle (1 ml/kg) in a blind manner via chronic subdural femoral vein access ports. Both groups of animals were injected 10 to 15 minutes before the start of testing.
For Porsolt testing, animals were given a 15 minute pre-test habituation in the tank to induce learned helplessness on day one. Following this, on the subsequent day, the animals were injected with GLYX-13 or vehicle 10-15 minutes before being placed into the tank for a 5 minute test session. After placing the animals in the tank, the amount of time for which each animal is immobile when it stops struggling (Mean Immobility Time) was measured. Decrease in Mean Immobility Time is a measure of the effectiveness of the antidepressant.
A second experiment was performed in the same manner as Example 1, except that 2-3 month Sprague-Dawley rats were used, and treated with either intravenous (1, 3, 10, 32 mg/kg), subcutaneous (1, 3, 10, 32, 56, 100 mg/kg) injections of GLYX-13 or saline vehicle (1 mg/ml) 15 (i,v.) or 20 (s.c.) min before the start of the final 5 min test session. Ketamine (10 mg/kg i.p.) was given 60 min befbre the start of testing (Garcia et al., (2008) Prog Neuropsychopharmacol Biol Psychiatry, 32, 140-144).
To determine whether the antidepressant effect of GLYX-13 was specific to the sequence of the GLXY-13 peptide, mean time (sec) spent floating in the Porsolt test was determined in groups of 12 three-month old Sprague Dawley rats administered with GLYX-13 (TPPT-NH2 (SEQ ID NO: 13); 3 mg/kg , i.v. tail vein), a scrambled peptide (PTPT-NH3(SEQ ID NO: 19); 3 mg/kg i.v. tail vein), or 0.9% saline vehicle (1 ml/kg, i.v. tail vein). Administration occurred 60 min before the 5 min testing session. Animals received a 15 min training swim session one day before dosing.
To evaluate whether the anti-depressive and anxiolytic effects of GLYX-13 would persist beyond a few hours, rats were tested in the Porsolt test and the Open Field test, described above. Groups of 10-11 three-month old Sprague-Dawley rats were pretreated with GLYX-13 (3 mg/kg i.v.), ketamine (10 mg/kg i.v.) or saline vehicle injection (1 mg/ml i.v. tail vein) 96 hrs before the start of testing. Animals received a single 15 min. training swim session one day before dosing. Animals were tested 96 hrs post dosing in the Porsolt test without any testing during the intervening period. Open field testing was conducted without pre-habituation 1 day after Porsolt testing (i.e. 120 hrs post dosing). Mean(±SEM) time (sec.) spent floating in the Porsolt test, time spent in the center compartment (sec.), and line crosses in the open field test were determined.
The Porsolt test adapted for use in rats was performed as above. […]

rats [2] = assay: Drug discrimination in rats trained to discriminate ketamine from saline
Method: Testing was conducted as described previously (Nicholson K L & Balster R L (2009) The discriminative stimulus effects of N-methyl-D-aspartate glycine-site ligands in NMDA antagonist-trained rats. Psychopharmacology (Berl) 203(2):441-451). Adult male Sprague Dawley rats were trained to discriminate ketamine (10 mg/kg IP) from saline. Animals were then tested following various doses of GLYX-13 administration (3-156 mg/kg SC) and the percent of ketamine lever responding and rates of responding were recorded.

rats [3] = assay: Prepulse inhibition; assay type: in vivo, rat; settings: Sprague-Dawley rats; GLYX-13 10 mg/kg IV tested 15 min post injection; ketamine 10 mg/kg IP tested immediately
Method: Animals were given intravenous injections of GLYX-13 (10 mg/kg) or saline via chronic indwelling femoral vein cannulae and tested 15 min post injection, or intraperitoneal ketamine (10 mg/kg) or saline vehicle (1 mL/kg IV or IP respectively) and tested immediately post injection for prepulse inhibition.

rats [4] = assay: Conditioned place preference; assay type: in vivo, rat; settings: GLYX-13 10 mg/kg IV; ketamine 10 mg/kg IV
Method: Animals were trained with GLYX-13 (10 mg/kg, IV), ketamine (10 mg/kg, IV), or saline vehicle (1 mL/kg, IV) utilizing an unbiased two-chamber conditioned place preference apparatus.

[5] = system: glycogen synthase kinase 3β (GSK-3β); assay: Total and phosphoserine-9 GSK-3β by ELISA in medial prefrontal cortex; assay type: in vivo, rat; settings: 24 hrs after GLYX-13 3 mg/kg IV or ketamine 10 mg/kg IV
Source text: (§1) Total and Phosphoserine-9 glycogen synthase kinase 3β (GSK-3β) were quantified by ELISA according to the manufacturer's instructions (catalog numbers ADI-900-144 and ADI-900-123A, Assay Designs, USA). Total and phosphoserine-845 GluR1 were quantified by Western blot.

β-catenin = assay: Total β-catenin protein level in medial prefrontal cortex; assay type: in vivo, rat; settings: 24 hrs after GLYX-13 3 mg/kg IV or ketamine 10 mg/kg IV
GluR1 = assay: Total and phosphoserine-845 GluR1 by Western blot in medial prefrontal cortex; assay type: in vivo, rat; settings: 24 hrs after GLYX-13 3 mg/kg IV or ketamine 10 mg/kg IV
Source text: as §1

[6] = system: patients suffering with refractory depression; settings: cited from earlier work
[7] = literature (Bristow et al. 1996; Parsons et al. 1997); cited from earlier work

## CNC1(c2ccccc2Cl)CCCCC1=O (stereo not drawn) [ketamine, reference compound]
Rats [1]; 10 mg/kg subcutaneous, testing 20 min post dosing
  dissociative side effects: severe dissociative side effects
Rats [1]; Sprague Dawley rats, 10 mg/kg IP, 20-60 min post dosing
  effect on floating times in the Porsolt test: reduced floating times
Rats [2]; IP, 30 mg/kg (higher dose)
  suppression of operant responding (rates of responding): suppress operant responding
Rats [2]; IP, 5.6-30 mg/kg
  ketamine-like discriminative stimulus effects (ketamine-lever selection): dose-dependent increases in ketamine-lever selection
Rats [2]; SC, 10 mg/kg (higher dose)
  suppression of operant responding (rates of responding): suppress operant responding
Rats [2]; SC, 1-10 mg/kg
  ketamine-like discriminative stimulus effects (ketamine-lever selection): dose-dependent increases in ketamine-lever selection
Rats [3]
  prepulse inhibition, an indicator of dissociative effects: decreased prepulse inhibition
Rats [4]
  conditioned place preference, an indicator of abuse potential: induced conditioned place preference
[5]
  phosphoserine-9 GSK-3β/total GSK-3β ratio: reduced
β-catenin
  total β-catenin: reduced
GluR1
  Phosphoserine-845 GluR1/total GluR1 ratio: increased
[6]
  Hamilton Depression Rating Score: significant reductions

## O=c1[nH]c2cc(Cl)ccc2c(O)c1-c1cccc(Oc2ccccc2)c1 [L-701,324]
[7]
  anticonvulsant effects relative to ataxia (therapeutic index): anticonvulsant effects at doses that produced ataxia

## C[C@@H]([C@@H](O)c1ccc(O)cc1)N1CCC(O)(c2ccccc2)CC1 [CPC-101,606]
[6]
  Hamilton Depression Rating Score: significant reductions

## NS(=O)(=O)c1cccc2c1c([N+](=O)[O-])cc1nc(O)c(O)nc12 [NBQX, reference compound]
Rats [1]; NBQX 10 mg/kg IP before GLYX-13 3 mg/kg IV, tested 1 hr post dosing
  effect of NBQX pretreatment on the antidepressant-like effect of GLYX-13 (floating time): blocked the antidepressant-like effect of GLYX-13
